# PubChem BioAssay (NCI)
#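 All cell lines were grown in 96-well plates and treated with compound for 48 hours. TGI: concentration producing complete growth inhibition.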
# Legend:
# Assay in all cases: NCI tumour cell line growth inhibition, 48 h
# [1] = tested on: UO-31 renal
# [2] = tested on: U251 CNS
# [3] = tested on: DMS 114 small cell lung
# [4] = tested on: RPMI-8226 leukemia
# [5] = tested on: SNB-75 CNS
# [6] = tested on: HOP-92 NSCLC
# [7] = tested on: SK-OV-3 ovarian
# [8] = tested on: SW-620 colon
# [9] = tested on: HOP-18 NSCLC
# [10] = tested on: SK-MEL-5 melanoma
# [11] = tested on: OVCAR-3 ovarian
# [12] = tested on: ACHN renal
# [13] = tested on: A549 NSCLC
# [14] = tested on: SK-MEL-2 melanoma
# [15] = tested on: IGROV1 ovarian
# [16] = tested on: SF-539 CNS
# [17] = tested on: NCI-H522 lung
# [18] = tested on: EKVX NSCLC
# [19] = tested on: DLD-1 colon
# [20] = tested on: SF-295 CNS
# [21] = tested on: SNB-78 CNS
# [22] = tested on: CCRF-CEM leukemia
# [23] = tested on: NCI-H23 lung
# [24] = tested on: HCC-2998 colon
# [25] = tested on: LXFL 529 NSCLC
# [26] = tested on: XF 498 CNS
# [27] = tested on: OVCAR-8 ovarian
# [28] = tested on: M19-MEL melanoma
# [29] = tested on: DMS 273 small cell lung
# [30] = tested on: K-562 leukemia
# [31] = tested on: MALME-3M melanoma
# [32] = tested on: UACC-257 melanoma
# [33] = tested on: UACC-62 melanoma
# [34] = tested on: A498 renal
# [35] = tested on: MOLT-4 leukemia
# [36] = tested on: SF-268 CNS
# [37] = tested on: COLO 205 colon
# [38] = tested on: HOP-62 NSCLC
# [39] = tested on: HCT-15 colon
# [40] = tested on: TK-10 renal
# [41] = tested on: NCI-H460 lung
# [42] = tested on: KM20L2 colon
# [43] = tested on: CAKI-1 renal
# [44] = tested on: HT29 colon
# [45] = tested on: SN12C renal
# [46] = tested on: HCT-116 colon
# [47] = tested on: SNB-19 CNS
# [48] = tested on: OVCAR-5 ovarian
# [49] = tested on: KM12 colon
# [50] = tested on: M14 melanoma
# [51] = tested on: RXF 393 renal
# [52] = tested on: OVCAR-4 ovarian
# [53] = tested on: HL-60(TB) leukemia
# [54] = tested on: LOX IMVI melanoma
# [55] = tested on: 786-0 renal
smiles,measurement,setting,value
Cc1nnc2n1N=C(c1ccccc1)C(c1ccccc1)S2 (stereo not given),TGI,[1],> 100 µM
same,TGI,[2],72 µM
same,TGI,[3],52.4 µM
same,TGI,[4],> 100 µM
same,TGI,[5],79.7 µM
same,TGI,[6],> 100 µM
same,TGI,[7],68.2 µM
same,TGI,[8],26.8 µM
same,TGI,[9],> 100 µM
same,TGI,[10],> 100 µM
same,TGI,[11],> 100 µM
same,TGI,[12],> 100 µM
same,TGI,[13],> 100 µM
same,TGI,[14],> 100 µM
same,TGI,[15],> 100 µM
same,TGI,[16],72.4 µM
same,TGI,[17],57.7 µM
same,TGI,[18],> 100 µM
same,TGI,[19],> 100 µM
same,TGI,[20],> 100 µM
same,TGI,[21],> 100 µM
same,TGI,[22],77.1 µM
same,TGI,[23],64 µM
same,TGI,[24],> 100 µM
same,TGI,[25],> 100 µM
same,TGI,[26],> 100 µM
same,TGI,[27],> 100 µM
same,TGI,[28],> 100 µM
same,TGI,[29],> 100 µM
same,TGI,[30],> 100 µM
same,TGI,[31],> 100 µM
same,TGI,[32],> 100 µM
same,TGI,[33],> 100 µM
same,TGI,[34],> 100 µM
same,TGI,[35],> 100 µM
same,TGI,[36],> 100 µM
same,TGI,[37],41.8 µM
same,TGI,[38],> 100 µM
same,TGI,[39],> 100 µM
same,TGI,[40],> 100 µM
same,TGI,[41],> 100 µM
same,TGI,[42],76.3 µM
same,TGI,[43],> 100 µM
same,TGI,[44],> 100 µM
same,TGI,[45],> 100 µM
same,TGI,[46],> 100 µM
same,TGI,[47],> 100 µM
same,TGI,[48],> 100 µM
same,TGI,[49],> 100 µM
same,TGI,[50],46.5 µM
same,TGI,[51],85.7 µM
same,TGI,[52],> 100 µM
same,TGI,[53],64.5 µM
same,TGI,[54],> 100 µM
same,TGI,[55],> 100 µM
